Legend:
[1] = target: T1, Angiotensin-converting enzyme (Oryctolagus cuniculus) (UniProt P12822); test: Time to inhibit maximum angiotensin I converting enzyme in rabbit lung; type: functional, tissue-based
T1 sequence (whole entry): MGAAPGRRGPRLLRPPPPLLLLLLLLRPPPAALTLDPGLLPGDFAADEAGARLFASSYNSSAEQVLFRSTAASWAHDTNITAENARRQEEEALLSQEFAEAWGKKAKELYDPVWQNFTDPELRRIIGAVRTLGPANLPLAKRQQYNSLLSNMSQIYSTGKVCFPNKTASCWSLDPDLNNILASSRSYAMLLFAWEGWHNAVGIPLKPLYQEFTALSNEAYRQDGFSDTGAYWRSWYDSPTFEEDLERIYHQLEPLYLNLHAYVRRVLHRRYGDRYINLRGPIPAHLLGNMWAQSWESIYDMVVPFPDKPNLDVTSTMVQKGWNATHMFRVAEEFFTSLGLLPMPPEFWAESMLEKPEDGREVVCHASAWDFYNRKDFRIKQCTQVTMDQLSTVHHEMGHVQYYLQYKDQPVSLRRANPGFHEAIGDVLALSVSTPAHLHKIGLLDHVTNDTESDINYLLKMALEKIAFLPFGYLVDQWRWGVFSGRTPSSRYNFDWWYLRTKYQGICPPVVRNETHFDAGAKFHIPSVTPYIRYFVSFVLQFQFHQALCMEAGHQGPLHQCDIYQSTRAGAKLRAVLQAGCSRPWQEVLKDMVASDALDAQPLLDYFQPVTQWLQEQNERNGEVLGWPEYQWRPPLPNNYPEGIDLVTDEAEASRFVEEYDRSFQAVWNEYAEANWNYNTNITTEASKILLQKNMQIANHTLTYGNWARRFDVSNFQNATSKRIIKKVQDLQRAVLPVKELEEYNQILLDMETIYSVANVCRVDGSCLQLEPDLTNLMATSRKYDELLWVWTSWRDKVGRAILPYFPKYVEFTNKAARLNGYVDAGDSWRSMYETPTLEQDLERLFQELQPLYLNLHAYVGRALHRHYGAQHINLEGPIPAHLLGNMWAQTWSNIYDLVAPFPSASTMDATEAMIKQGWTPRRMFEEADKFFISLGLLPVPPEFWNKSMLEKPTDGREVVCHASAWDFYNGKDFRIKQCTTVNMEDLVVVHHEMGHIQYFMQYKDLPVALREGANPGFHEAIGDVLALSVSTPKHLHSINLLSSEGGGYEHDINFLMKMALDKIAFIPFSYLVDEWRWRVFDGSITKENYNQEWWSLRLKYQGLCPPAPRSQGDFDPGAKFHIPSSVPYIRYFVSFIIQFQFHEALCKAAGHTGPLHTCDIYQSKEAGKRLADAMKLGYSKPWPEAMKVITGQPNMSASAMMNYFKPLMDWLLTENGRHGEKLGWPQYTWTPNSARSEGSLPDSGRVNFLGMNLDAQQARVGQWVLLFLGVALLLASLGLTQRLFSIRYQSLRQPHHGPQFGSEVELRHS

[2] = target: T1, Angiotensin-converting enzyme (Oryctolagus cuniculus); test: Time during which angiotensin I converting enzyme inhibition is greater than or equa to 30% in rabbit lung; type: functional, tissue-based
Rattus norvegicus [3] = test: Percent change in K+ in fasted rats at the dose of 100 mg/kg (iv), 5-24 h; type: functional
[4] = target: T1, Angiotensin-converting enzyme (Oryctolagus cuniculus); test: In vivo inhibition of angiotensin I converting enzyme (ACE) in rabbit lung after (iv) administration of a dose of 10(mg/kg); type: organism-based
Rattus norvegicus [5] = test: Percent change in urinary volume in fasted rats at the dose of 100 mg/kg (iv), 0-5 h; type: functional, Urine
Rattus norvegicus [6] = test: Percent change in K+ in fasted rats at the dose of 100 mg/kg (iv), 0-5 h; type: functional
Rattus norvegicus [7] = test: Percent change in Na+ in fasted rats at the dose of 100 mg/kg (iv), 0-5 h; type: functional
[8] = target: T2, Angiotensin-converting enzyme (Oryctolagus cuniculus, UniProt P12822); test: In vitro inhibition of angiotensin I converting enzyme (ACE) in rabbit lung; type: tissue-based
T2 sequence (P12822 whole entry): T1 sequence (whole entry)

Rattus norvegicus [9] = test: Percent change in urinary volume in fasted rats at the dose of 100 mg/kg (iv), 5-24 h; type: functional, Urine
Rattus norvegicus [10] = test: Percent change in Na+in fasted rats at the dose of 100 mg/kg (iv), 5-24 h; type: functional

- Time to max. inhibition [1]: 0.3 h
- Duration [2]: 3.7 h
- inhibition [4]: 76%
- IC50 [8]: 6.5 nM
SMILES: C[C@H](N[C@@H](CCc1ccccc1)C(=O)O)C(=O)N1C[C@@H](NS(=O)(=O)c2cc(S(N)(=O)=O)c(N)cc2Cl)C[C@H]1C(=O)O
- Change (Rattus norvegicus [3]): 0%
- Change (Rattus norvegicus [5]): -49%
- Change (Rattus norvegicus [6]): 0%
- Change (Rattus norvegicus [7]): -57%
- Change (Rattus norvegicus [9]): 60%
- Change (Rattus norvegicus [10]): 38%
